Results reported in ChEMBL document CHEMBL1681705, “Optimisation of ITK inhibitors through successive iterative design cycles” (Bioorg Med Chem Lett, 2011).

Experiments:
[1] = target: Receptor-interacting serine/threonine-protein kinase 2 (Homo sapiens) (UniProt O43353); test: Inhibition of RIPK2 at 0.1 uM; values are per cent of control
[2] = target: T1, Protein kinase C iota type (Homo sapiens) (UniProt P41743); test: Inhibition of PKCiota at 0.1 uM; values are per cent of control
T1 sequence (whole entry): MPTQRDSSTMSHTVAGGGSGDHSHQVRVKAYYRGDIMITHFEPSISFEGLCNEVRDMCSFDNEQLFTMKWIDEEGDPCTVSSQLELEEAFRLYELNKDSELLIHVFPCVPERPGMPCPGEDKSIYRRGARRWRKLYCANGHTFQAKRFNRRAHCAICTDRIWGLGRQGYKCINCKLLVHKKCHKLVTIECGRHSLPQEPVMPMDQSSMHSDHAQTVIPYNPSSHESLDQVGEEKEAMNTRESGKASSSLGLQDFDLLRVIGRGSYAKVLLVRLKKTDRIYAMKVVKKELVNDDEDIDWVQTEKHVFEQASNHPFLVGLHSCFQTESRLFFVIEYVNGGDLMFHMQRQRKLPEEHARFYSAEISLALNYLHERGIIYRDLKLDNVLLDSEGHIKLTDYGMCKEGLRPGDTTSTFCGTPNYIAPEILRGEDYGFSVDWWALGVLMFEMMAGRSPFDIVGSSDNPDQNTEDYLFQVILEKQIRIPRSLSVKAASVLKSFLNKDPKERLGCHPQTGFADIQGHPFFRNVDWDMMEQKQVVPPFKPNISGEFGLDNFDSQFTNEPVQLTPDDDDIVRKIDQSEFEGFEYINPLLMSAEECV

[3] = target: Death-associated protein kinase 2 (Homo sapiens) (UniProt Q9UIK4); test: Inhibition of DAPK2 at 1 uM; values are per cent of control
Sequence of Death-associated protein kinase 2 (Homo sapiens) (Q9UIK4 whole entry, looked up): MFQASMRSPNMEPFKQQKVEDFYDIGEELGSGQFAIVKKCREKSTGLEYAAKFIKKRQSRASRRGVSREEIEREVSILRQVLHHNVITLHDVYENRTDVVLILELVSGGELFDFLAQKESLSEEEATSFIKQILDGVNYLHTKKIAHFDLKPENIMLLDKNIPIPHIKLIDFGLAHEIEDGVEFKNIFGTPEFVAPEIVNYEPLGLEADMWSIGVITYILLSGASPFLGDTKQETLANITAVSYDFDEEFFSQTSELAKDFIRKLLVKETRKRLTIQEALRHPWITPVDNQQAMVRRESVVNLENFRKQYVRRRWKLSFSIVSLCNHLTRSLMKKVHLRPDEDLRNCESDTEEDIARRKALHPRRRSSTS

[4] = target: Serine/threonine-protein kinase N2 (Homo sapiens) (UniProt Q16513); test: Inhibition of PRK2 at 0.1 uM; values are per cent of control
Sequence of Serine/threonine-protein kinase N2 (Homo sapiens) (Q16513 whole entry, looked up): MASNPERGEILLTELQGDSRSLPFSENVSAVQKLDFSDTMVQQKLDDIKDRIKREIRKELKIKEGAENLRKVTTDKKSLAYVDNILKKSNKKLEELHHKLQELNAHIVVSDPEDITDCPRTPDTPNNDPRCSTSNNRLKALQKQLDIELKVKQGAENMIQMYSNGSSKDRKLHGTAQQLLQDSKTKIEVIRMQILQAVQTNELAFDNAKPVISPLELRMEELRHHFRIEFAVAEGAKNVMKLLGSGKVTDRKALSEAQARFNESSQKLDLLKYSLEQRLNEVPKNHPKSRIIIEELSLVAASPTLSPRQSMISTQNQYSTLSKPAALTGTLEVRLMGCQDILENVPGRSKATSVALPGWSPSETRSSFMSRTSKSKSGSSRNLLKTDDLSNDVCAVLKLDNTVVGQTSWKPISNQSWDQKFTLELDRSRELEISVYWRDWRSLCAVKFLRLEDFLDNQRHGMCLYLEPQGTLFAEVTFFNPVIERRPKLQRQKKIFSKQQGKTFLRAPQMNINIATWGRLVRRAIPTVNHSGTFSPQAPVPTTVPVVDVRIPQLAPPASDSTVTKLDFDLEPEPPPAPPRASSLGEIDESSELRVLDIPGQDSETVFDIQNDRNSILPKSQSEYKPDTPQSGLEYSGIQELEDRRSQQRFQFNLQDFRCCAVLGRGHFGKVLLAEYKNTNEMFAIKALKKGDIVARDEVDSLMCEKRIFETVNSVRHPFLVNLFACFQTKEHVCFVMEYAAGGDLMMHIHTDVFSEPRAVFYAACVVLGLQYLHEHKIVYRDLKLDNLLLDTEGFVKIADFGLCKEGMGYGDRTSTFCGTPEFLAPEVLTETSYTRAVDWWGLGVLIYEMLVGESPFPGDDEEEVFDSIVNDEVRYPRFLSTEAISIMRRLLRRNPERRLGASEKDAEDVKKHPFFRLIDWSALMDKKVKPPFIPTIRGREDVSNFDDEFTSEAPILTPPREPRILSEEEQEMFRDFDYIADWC

[5] = target: T2, Cytoplasmic tyrosine-protein kinase BMX (Homo sapiens) (UniProt P51813); test: Inhibition of Bmx at 1 uM; values are per cent of control
T2 sequence (whole entry): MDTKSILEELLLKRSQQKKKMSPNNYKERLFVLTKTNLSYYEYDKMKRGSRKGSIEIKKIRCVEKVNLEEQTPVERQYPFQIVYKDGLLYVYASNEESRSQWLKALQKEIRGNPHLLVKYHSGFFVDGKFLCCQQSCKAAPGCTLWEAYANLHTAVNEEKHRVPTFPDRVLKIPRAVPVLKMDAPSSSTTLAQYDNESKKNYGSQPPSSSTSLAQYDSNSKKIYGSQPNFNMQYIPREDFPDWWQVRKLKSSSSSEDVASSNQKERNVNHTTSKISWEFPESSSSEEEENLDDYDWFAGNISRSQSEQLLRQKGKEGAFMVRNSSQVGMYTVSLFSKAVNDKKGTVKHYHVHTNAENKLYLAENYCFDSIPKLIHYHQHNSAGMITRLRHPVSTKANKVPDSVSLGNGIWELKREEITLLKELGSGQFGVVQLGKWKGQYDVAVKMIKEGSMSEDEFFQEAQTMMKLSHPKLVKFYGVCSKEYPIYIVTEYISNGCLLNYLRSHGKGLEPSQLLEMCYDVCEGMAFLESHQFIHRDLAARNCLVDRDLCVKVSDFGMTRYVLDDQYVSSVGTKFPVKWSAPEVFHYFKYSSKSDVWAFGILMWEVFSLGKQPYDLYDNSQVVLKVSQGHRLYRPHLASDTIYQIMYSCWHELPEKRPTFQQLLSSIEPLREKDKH

[6] = target: Mast/stem cell growth factor receptor Kit (Homo sapiens) (UniProt P10721); test: Inhibition of c-Kit at 1 uM; values are per cent of control
Sequence of Mast/stem cell growth factor receptor Kit (Homo sapiens) (P10721 whole entry): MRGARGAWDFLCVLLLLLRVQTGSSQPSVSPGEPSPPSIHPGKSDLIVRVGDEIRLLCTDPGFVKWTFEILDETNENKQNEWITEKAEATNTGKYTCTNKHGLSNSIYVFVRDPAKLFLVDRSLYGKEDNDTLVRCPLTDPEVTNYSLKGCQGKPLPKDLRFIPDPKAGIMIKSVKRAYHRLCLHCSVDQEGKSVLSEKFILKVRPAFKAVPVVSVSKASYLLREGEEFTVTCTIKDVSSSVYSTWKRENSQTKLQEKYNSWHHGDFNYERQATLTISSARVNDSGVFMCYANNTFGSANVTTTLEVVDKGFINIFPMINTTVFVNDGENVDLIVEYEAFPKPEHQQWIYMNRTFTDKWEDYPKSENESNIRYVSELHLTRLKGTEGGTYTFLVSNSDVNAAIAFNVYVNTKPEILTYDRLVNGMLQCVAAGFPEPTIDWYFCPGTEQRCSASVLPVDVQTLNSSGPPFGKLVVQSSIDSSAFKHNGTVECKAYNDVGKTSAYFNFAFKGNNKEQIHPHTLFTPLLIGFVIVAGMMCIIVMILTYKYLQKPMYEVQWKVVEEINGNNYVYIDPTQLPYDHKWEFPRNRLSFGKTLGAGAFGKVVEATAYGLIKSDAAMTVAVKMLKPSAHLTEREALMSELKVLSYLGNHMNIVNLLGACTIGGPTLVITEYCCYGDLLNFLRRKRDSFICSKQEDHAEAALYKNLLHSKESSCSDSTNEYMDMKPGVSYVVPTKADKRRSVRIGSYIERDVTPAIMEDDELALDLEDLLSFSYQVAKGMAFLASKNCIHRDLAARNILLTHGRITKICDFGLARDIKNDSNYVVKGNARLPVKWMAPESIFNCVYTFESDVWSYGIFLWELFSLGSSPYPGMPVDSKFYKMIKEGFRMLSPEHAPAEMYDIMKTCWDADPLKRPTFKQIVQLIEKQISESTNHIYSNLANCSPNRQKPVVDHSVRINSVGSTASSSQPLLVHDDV

[7] = target: Ephrin type-A receptor 5 (Homo sapiens) (UniProt P54756); test: Inhibition of EphA5 at 0.1 uM; values are per cent of control
Sequence of Ephrin type-A receptor 5 (Homo sapiens) (P54756 whole entry): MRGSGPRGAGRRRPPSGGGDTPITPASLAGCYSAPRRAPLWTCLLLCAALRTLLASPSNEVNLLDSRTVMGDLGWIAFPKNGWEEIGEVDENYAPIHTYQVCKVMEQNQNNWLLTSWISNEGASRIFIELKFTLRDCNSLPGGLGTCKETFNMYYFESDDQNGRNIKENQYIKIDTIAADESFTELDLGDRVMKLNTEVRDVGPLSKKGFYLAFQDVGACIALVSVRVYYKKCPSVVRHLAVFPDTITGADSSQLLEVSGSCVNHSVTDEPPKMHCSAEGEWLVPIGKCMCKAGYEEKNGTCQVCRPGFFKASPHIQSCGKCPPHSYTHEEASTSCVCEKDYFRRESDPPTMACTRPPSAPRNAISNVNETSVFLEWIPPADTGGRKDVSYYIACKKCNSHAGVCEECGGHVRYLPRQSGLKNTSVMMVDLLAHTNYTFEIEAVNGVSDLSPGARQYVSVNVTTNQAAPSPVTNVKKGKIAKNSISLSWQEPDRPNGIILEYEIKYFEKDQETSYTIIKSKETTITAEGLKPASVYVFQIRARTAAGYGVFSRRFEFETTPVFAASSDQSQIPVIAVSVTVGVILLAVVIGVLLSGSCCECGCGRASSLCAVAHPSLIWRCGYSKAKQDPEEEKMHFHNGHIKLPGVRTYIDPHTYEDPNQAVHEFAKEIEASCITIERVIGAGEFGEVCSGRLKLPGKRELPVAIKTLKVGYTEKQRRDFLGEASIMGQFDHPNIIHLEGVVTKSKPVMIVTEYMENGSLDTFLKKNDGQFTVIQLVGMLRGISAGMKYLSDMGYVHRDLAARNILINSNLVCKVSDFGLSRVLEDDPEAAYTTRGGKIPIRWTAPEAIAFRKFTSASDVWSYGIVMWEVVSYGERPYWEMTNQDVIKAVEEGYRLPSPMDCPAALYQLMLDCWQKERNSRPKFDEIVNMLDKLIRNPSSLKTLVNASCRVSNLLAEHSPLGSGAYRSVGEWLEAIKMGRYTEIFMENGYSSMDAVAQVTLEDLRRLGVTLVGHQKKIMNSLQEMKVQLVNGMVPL

[8] = target: T3, Ephrin type-B receptor 4 (Homo sapiens) (UniProt P54760); test: Inhibition of EphB4 at 0.1 uM; values are per cent of control
T3 sequence (whole entry): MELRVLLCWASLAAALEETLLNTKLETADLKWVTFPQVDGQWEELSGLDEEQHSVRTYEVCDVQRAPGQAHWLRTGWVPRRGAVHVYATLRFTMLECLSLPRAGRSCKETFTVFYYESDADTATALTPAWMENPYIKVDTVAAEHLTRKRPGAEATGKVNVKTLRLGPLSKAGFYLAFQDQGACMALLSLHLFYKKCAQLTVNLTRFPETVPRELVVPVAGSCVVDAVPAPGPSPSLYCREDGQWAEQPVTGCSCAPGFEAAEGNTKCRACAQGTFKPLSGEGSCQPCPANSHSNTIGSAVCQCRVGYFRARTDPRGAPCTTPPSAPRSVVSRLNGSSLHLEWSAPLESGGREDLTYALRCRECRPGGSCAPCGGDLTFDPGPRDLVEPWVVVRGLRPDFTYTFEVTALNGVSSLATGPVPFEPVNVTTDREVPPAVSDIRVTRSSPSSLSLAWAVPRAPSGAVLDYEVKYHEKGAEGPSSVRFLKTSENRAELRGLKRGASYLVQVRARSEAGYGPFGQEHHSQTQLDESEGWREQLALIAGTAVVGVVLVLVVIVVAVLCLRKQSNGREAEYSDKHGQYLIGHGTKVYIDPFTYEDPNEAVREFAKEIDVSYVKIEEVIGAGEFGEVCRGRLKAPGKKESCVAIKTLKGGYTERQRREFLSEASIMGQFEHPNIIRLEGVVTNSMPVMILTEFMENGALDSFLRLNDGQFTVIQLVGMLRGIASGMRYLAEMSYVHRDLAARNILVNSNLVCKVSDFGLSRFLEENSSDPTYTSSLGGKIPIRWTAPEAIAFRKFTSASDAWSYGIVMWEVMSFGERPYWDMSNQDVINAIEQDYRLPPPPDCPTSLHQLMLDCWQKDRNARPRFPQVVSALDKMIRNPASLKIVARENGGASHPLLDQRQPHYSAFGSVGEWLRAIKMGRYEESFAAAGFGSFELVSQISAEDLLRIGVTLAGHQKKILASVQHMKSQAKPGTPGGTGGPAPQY

Sequence of Receptor-interacting serine/threonine-protein kinase 2 (Homo sapiens) (O43353 whole entry): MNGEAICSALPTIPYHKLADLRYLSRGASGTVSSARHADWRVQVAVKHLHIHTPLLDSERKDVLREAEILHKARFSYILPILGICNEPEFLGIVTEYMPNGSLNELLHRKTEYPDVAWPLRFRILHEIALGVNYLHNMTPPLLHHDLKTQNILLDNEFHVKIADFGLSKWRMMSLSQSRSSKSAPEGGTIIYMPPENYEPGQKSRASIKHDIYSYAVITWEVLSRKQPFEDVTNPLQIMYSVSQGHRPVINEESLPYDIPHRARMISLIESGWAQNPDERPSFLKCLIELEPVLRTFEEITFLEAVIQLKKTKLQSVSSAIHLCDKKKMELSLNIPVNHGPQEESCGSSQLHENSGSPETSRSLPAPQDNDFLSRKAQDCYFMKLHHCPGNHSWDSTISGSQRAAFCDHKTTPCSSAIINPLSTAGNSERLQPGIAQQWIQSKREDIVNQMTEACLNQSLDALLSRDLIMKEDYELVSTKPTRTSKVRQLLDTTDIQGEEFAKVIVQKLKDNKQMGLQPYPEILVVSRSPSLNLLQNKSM

Row | SMILES | residual activity [1] [%] | residual activity [2] [%] | residual activity [3] [%] | residual activity [4] [%] | residual activity [5] [%] | residual activity [6] [%] | residual activity [7] [%] | residual activity [8] [%]
1 | Cc1ccc2cc(-c3n[nH]c4ccc(NC5CCN(Cc6ccccc6)CC5)cc34)[nH]c2c1 | 94 | 109 | 112 | 25 | 8 | 122 | 81 | 101
2 | Cc1ccc2cc(-c3n[nH]c4ccc(NC5CCNC5)cc34)[nH]c2c1 (stereo unspecified) | 87 | 89 | 61 | 93 | -7 | 69 | 86 | 106
